Results taken from patent publication US6875775B2, “Triphenylalkene derivatives and their use as selective estrogen receptor modulators” (Hormos Medical Oy LTD, priority 1999, dated 2005).
Read-outs that look alike come from different tables or passages of the source.

Tests used:
[1] = test system: MCF-7 cells; experiment: cells; format: cell-based; settings: for Maximal Cell Kill (% fraction of dead cells) / cytotoxicity at 10 µM: 10 μmol/l; for Maximal Agonism (% of E2) / Emax: maximal growth stimulus at any concentration, 4 days; for cytotoxicity at 10 µM / inhibition at 1 µM / Emax: Homo sapiens, MCF7, 96 h; for cytotoxicity at 10 µM: read-out: Maximal Cell Kill (% fraction of dead cells); for inhibition at 1 µM: read-out: Antagonism at 1 μM (% of full antagonism); for Emax: read-out: Maximal Agonism (% of E2); for Killing of MCF-7 cells at the highest investigated concentration (in words): 10 μM, compounds with weak hormonal activity
Experimental: Evaluation of Estrogenic and Antiestrogenic Properties of Compounds in MCF-7 Cell Growth Experiments in Vitro
For experiments involving hormone or anti-hormone treatment, the cells in exponential growth phase were precultivated in the absence of estradiol for one day. […] After the incubation period the medium was removed. The exposure to study drugs was started immediately by adding fresh medium with 5% stripped serum. Half of the cells were grown with estradiol, half without estradiol. Study compounds (dissolved in ethanol in 0.01 M concentration and diluted with the growth medium as appropriate) were added. The final concentrations of the compounds were 1, 10, and 100 nM, and 1 and 10 μM. The cells were incubated for four days.
This method allows evaluation of estrogenicity based on the ability of the compounds to stimulate the growth of the estrogen-dependent cells in the absence of estradiol.
Estrogenicity was estimated by comparing the maximal growth stimulus (at any concentration) of study compound as percent from growth stimulus by estradiol (100% stimulus). […] At high concentrations molecules may also show toxicity. Toxicity was estimated as the fraction of dead cells (i.e. 100% means that all cells have died during the exposure).

[2] = Overall hormonal profile summarised from Tables 2, 3 and 4
[3] = test system: DMBA-induced rat mammary gland cancer; experiment: Antitumor activity in DMBA-induced rat mammary gland cancer model; format: in vivo; settings: 3 mg/kg p.o. daily for 5 weeks
Experimental: Estimation of Antitumor Activity in Vivo
Antitumor activity was estimated by using DMBA (dimethylbenz[a] anthracene) model. One single peroral dose of DMBA (12 mg) initiates mammary gland carcinogenesis. New compounds were administered for 5 weeks when palpable tumors appeared. Size of the tumors and number of new tumors were carefully estimated once a week until termination. The model has been described in detail by Kangas et al, 1986. The growth of the tumors was measured once a week. All tumors were classified according to their growth properties to progressing, stable and regressing ones. Disappeared tumors were separately calculated. The tumors were considered to be progressing, if the tumor volume grew more than 8-fold during the 5 weeks dosing period, and regressing if the tumor volume decreased to one fourth or less from the volume in the beginning. If tumor volume changed less or remained unchanged, the tumors were considered to be stable.

CCCCN(C)C(=O)CCCCCCCCCC[C@@H]1Cc2cc(O)ccc2[C@H]2CC[C@]3(C)[C@@H](O)CC[C@H]3[C@H]12 [ICI 164,384, reference compound]
Antagonism at 1 μM (% of full antagonism) ([1]; With estradiol (E2)): 100 % of full antagonism
Maximal Cell Kill (% fraction of dead cells) ([1]; With estradiol (E2)): 100 % fraction of dead cells
Maximal Cell Kill (% fraction of dead cells) ([1]; Without estradiol (E2)): 100 % fraction of dead cells
Maximal Agonism (% of E2) ([1]; Without estradiol (E2)): 9 % of E2

ClCCOc1ccc(/C(=C(/CCCl)c2ccc(Cl)cc2)c2ccc(Cl)cc2)cc1 [No. 6, (E)-4-Chloro-1-[4-(2-chloroethoxy)phenyl]-1,2-bis(4-chlorophenyl)-but-1-ene]
cytotoxicity at 10 µM ([1]; With estradiol (E2)): 40%
cytotoxicity at 10 µM ([1]; Without estradiol (E2)): 47%
inhibition at 1 µM ([1]; With estradiol (E2)): 16%
Emax ([1]; Without estradiol (E2)): 0%

OCC(O)COc1ccc(/C(=C(/CCCl)c2ccccc2)c2ccc(Cl)cc2)cc1 (stereo not shown) [No. 10, (E)-3-{4-[4-Chloro-1-(4-chlorophenyl)-2-phenyl-but-1-enyl]phenoxy}propane-1,2-diol]
Estrogenic and antiestrogenic action (in words) [2]: weak estrogenic and no antiestrogenic action
cytotoxicity at 10 µM ([1]; With estradiol (E2)): 35%
cytotoxicity at 10 µM ([1]; Without estradiol (E2)): 7%
inhibition at 1 µM ([1]; With estradiol (E2)): 0%
Emax ([1]; Without estradiol (E2)): 34%

ClCCOCCOc1ccc(/C(=C(/CCCl)c2ccccc2)c2ccc(Cl)cc2)cc1 [No. 14]
Antagonism at 1 μM (% of full antagonism) ([1]; With estradiol (E2)): 27 % of full antagonism
Maximal Cell Kill (% fraction of dead cells) ([1]; With estradiol (E2)): 57 % fraction of dead cells
Maximal Cell Kill (% fraction of dead cells) ([1]; Without estradiol (E2)): 10 % fraction of dead cells
Maximal Agonism (% of E2) ([1]; Without estradiol (E2)): 12 % of E2

Fc1ccc(/C(=C(\CCCl)c2ccccc2)c2ccc(OCCOCCCl)cc2)cc1 [No. 15]
Antagonism at 1 μM (% of full antagonism) ([1]; With estradiol (E2)): 5 % of full antagonism
Maximal Cell Kill (% fraction of dead cells) ([1]; With estradiol (E2)): 9 % fraction of dead cells
Maximal Cell Kill (% fraction of dead cells) ([1]; Without estradiol (E2)): 82 % fraction of dead cells
Maximal Agonism (% of E2) ([1]; Without estradiol (E2)): 74 % of E2

OCCOc1ccc(C(=C(CCCl)c2ccccc2)c2ccc(OCCO)cc2)cc1 [No. 16, 2-(4-{4-Chloro-1-[4-(2-hydroxyethoxy)phenyl]-2-phenyl-but-1-enyl}phenoxy)1-ethanol]
Killing of MCF-7 cells at the highest investigated concentration (in words) [1]: kill MCF-7 cells (human breast cancer cells) effectively

ClCC/C(=C(\c1ccccc1)c1ccc(OCCn2ccnc2)cc1)c1ccccc1 [No. 21, (Z)-1-{2-[4-(4-Chloro-1,2-diphenyl-but-1-enyl)phenoxy]ethyl}-1H-imidazole]
cytotoxicity at 10 µM ([1]; With estradiol (E2)): 91%
cytotoxicity at 10 µM ([1]; Without estradiol (E2)): 80%
inhibition at 1 µM ([1]; With estradiol (E2)): 0%
Emax ([1]; Without estradiol (E2)): 5%

CN(CCO)CCOc1ccc(/C(=C(/CCCl)c2ccccc2)c2ccccc2)cc1 [No. 22, (Z)-2-({2-[4-(4-Chloro-1,2-diphenyl-but-1-enyl)phenoxy]ethyl}methylamino)ethanol]
cytotoxicity at 10 µM ([1]; With estradiol (E2)): 41%
cytotoxicity at 10 µM ([1]; Without estradiol (E2)): 15%
inhibition at 1 µM ([1]; With estradiol (E2)): 12%
Emax ([1]; Without estradiol (E2)): 1%

CN(C)CCOc1ccc(/C(=C(/CCCl)c2ccc(F)cc2)c2ccccc2)cc1 [No. 25, (Z)-(2-{4-[4-Chloro-2-(4-fluorophenyl)-1-phenylbut-1-enyl]phenoxy}ethyl)-dimethylamine]
Estrogenic and antiestrogenic action (in words) [2]: weak estrogenic and no antiestrogenic action

COc1ccc(/C(=C(\CCCl)c2ccc(Cl)cc2)c2ccc(OCCN(C)C)cc2)cc1 [No. 26, (Z)-(2-{4-[4-Chloro-2-(4-chlorophenyl)-1-(4-methoxyphenyl)but-1-enyl]phenoxy}-ethyl)dimethylamine]
Killing of MCF-7 cells at the highest investigated concentration (in words) [1]: kill MCF-7 cells (human breast cancer cells) effectively

COc1ccc(/C(=C(/CCCl)c2ccc(Cl)cc2)c2ccc(OCCN(C)C)cc2)cc1 [No. 27, (E)-(2-{4-[4-Chloro-2-(4-chlorophenyl)-1-(4-methoxyphenyl)but-1-enyl]phenoxy}-ethyl)dimethylamine]
Killing of MCF-7 cells at the highest investigated concentration (in words) [1]: kill MCF-7 cells (human breast cancer cells) effectively

COc1cccc(/C(CCCl)=C(/c2ccccc2)c2ccc(OCCN3CCCCC3)cc2)c1 [No. 28, (Z)-1-(2-{4-[4-Chloro-2-(3-methoxyphenyl)-1-phenylbut-1-enyl]phenoxy}-ethyl)piperidine]
cytotoxicity at 10 µM ([1]; With estradiol (E2)): 92%
cytotoxicity at 10 µM ([1]; Without estradiol (E2)): 86%
inhibition at 1 µM ([1]; With estradiol (E2)): 18%
Emax ([1]; Without estradiol (E2)): 3%

COc1ccccc1/C(CCCl)=C(/c1ccccc1)c1ccc(OCCN2CCCCC2)cc1 [No. 30, (Z)-1-(2-{4-[4-Chloro-2-(2-methoxyphenyl)-1-phenylbut-1-enyl]phenoxy}-ethyl)piperidine]
cytotoxicity at 10 µM ([1]; With estradiol (E2)): 92%
cytotoxicity at 10 µM ([1]; Without estradiol (E2)): 91%
inhibition at 1 µM ([1]; With estradiol (E2)): 4%
Emax ([1]; Without estradiol (E2)): 5%

OCCCOc1ccc(/C(=C(/CCCl)c2ccccc2)c2ccccc2)cc1 [No. 35, (Z)-3-[4-(4-Chloro-1,2-diphenylbut-1-enyl)phenoxy]propan-1-ol]
Emax ([1]; Without estradiol (E2)): 45%

ClCC/C(=C(\c1ccccc1)c1ccc(OCCN2CCCCC2)cc1)c1ccccc1Cl [No. 38, (Z)-1-(2-{4-[4-Chloro-2-(2-chlorophenyl)-1-phenylbut-1-enyl]phenoxy}-ethyl)piperidine]
cytotoxicity at 10 µM ([1]; With estradiol (E2)): 100%
cytotoxicity at 10 µM ([1]; Without estradiol (E2)): 99%
inhibition at 1 µM ([1]; With estradiol (E2)): 68%
Emax ([1]; Without estradiol (E2)): 0%

Oc1cccc(/C(=C(\CCCl)c2ccccc2)c2ccc(OCCn3ccnc3)cc2)c1 [No. 39, (E)-3-{4-Chloro-1-[4-(2-imidazol-1-yl-ethoxy)phenyl]-2-phenyl-but-1-enyl}-phenol]
Killing of MCF-7 cells at the highest investigated concentration (in words) [1]: kill MCF-7 cells (human breast cancer cells) effectively
cytotoxicity at 10 µM ([1]; With estradiol (E2)): 78%
cytotoxicity at 10 µM ([1]; Without estradiol (E2)): 68%
inhibition at 1 µM ([1]; With estradiol (E2)): 17%
Emax ([1]; Without estradiol (E2)): 0%

Oc1cccc(/C(=C(/CCCl)c2ccccc2)c2ccc(OCCn3ccnc3)cc2)c1 [No. 40, (Z)-3-{4-Chloro-1-[4-(2-imidazol-1-yl-ethoxy)phenyl]-2-phenyl-but-1-enyl}-phenol]
Killing of MCF-7 cells at the highest investigated concentration (in words) [1]: kill MCF-7 cells (human breast cancer cells) effectively
cytotoxicity at 10 µM ([1]; With estradiol (E2)): 46%
cytotoxicity at 10 µM ([1]; Without estradiol (E2)): 63%
inhibition at 1 µM ([1]; With estradiol (E2)): 3%
Emax ([1]; Without estradiol (E2)): 0%

OCCNc1ccc(/C(=C(/CCCl)c2ccccc2)c2ccccc2)cc1 [No. 41, (Z)-2-[4-(4-Chloro-1,2-diphenyl-but-1-enyl)phenylamino]ethanol]
cytotoxicity at 10 µM ([1]; With estradiol (E2)): 47%
cytotoxicity at 10 µM ([1]; Without estradiol (E2)): 0%
inhibition at 1 µM ([1]; With estradiol (E2)): 10%
Emax ([1]; Without estradiol (E2)): 54%

CCC(O)(CC)COc1ccc(/C(=C(/CCCl)c2ccccc2)c2ccccc2)cc1 [No. 45, (Z)-3-[4-(4-Chloro-1,2-diphenylbut-1-enyl)phenoxymethyl]pentan-3-ol]
cytotoxicity at 10 µM ([1]; With estradiol (E2)): 19%
cytotoxicity at 10 µM ([1]; Without estradiol (E2)): 6%
inhibition at 1 µM ([1]; With estradiol (E2)): 3%
Emax ([1]; Without estradiol (E2)): 15%

CCC(CO)Oc1ccc(/C(=C(/CCCl)c2ccccc2)c2ccccc2)cc1 (stereo not shown) [No. 46, (Z)-2-[4-(4-Chloro-1,2-diphenylbut-1-enyl)phenoxy]butan-1-ol]
cytotoxicity at 10 µM ([1]; With estradiol (E2)): 51%
cytotoxicity at 10 µM ([1]; Without estradiol (E2)): 15%
inhibition at 1 µM ([1]; With estradiol (E2)): 23%
Emax ([1]; Without estradiol (E2)): 18%

CC/C(=C(\c1ccccc1)c1ccc(OCCN(C)C)cc1)c1ccccc1 [Tamoxifen, reference compound]
Disappeared tumors (per cent of total tumor number) [3]: 0%
Growing tumors (per cent of total tumor number) [3]: 36%
Regressing tumors (per cent of total tumor number) [3]: 8%
Stable tumors (per cent of total tumor number) [3]: 56%

CN(C)CCOc1ccc(/C(=C(/CCCl)c2ccccc2)c2ccccc2)cc1 [Toremifene, reference compound]
Disappeared tumors (per cent of total tumor number) [3]: 10%
Growing tumors (per cent of total tumor number) [3]: 31%
Regressing tumors (per cent of total tumor number) [3]: 11%
Stable tumors (per cent of total tumor number) [3]: 51%
